Source: the NIST ThermoML archive (doi:10.1016/j.fluid.2014.01.003)
Numbers after ± are expanded uncertainties.

Experiments:
[1] = xn = mol fraction of the nth substance listed; conditions: 298.2 K, 101 kPa, Liquid, Camera Imaging
[2] = refractive index (Na D-line) (dimensionless); conditions: 101.33 kPa, Liquid, Standard Abbe refractometry
[3] = 101.33 kPa, Liquid, Cone and plate viscometry
[4] = φn = volume fraction of the nth substance listed; conditions: 101 kPa, Liquid, Camera Imaging, φ1 = 0.5

| SMILES | refractive index ([2]; 298.2 K) | refractive index ([2]; 318.2 K) | refractive index ([2]; 328.2 K) | refractive index ([2]; 338.2 K) | viscosity ([3]; 298.2 K) [mPa·s] | viscosity ([3]; 308.2 K) [mPa·s] | viscosity ([3]; 318.2 K) [mPa·s] | viscosity ([3]; 328.2 K) [mPa·s] | viscosity ([3]; 338.2 K) [mPa·s] | binary diffusion coefficient ([4]; 298.2 K) [m2/s] | other results |
| --- | --- | --- | --- | --- | --- | --- | --- | --- | --- | --- | --- |
| OCCO [1,2-ethanediol] + O | – | – | – | – | – | – | – | – | – | – | binary diffusion coefficient ([1]; x1 = 0.0323): 1.23e-09 m2/s; binary diffusion coefficient ([1]; x1 = 0.0698): 8.36e-10 m2/s; binary diffusion coefficient ([1]; x1 = 0.114): 7.12e-10 m2/s; binary diffusion coefficient ([1]; x1 = 0.1667): 6.38e-10 m2/s; binary diffusion coefficient ([1]; x1 = 0.242): 5.86e-10 m2/s; binary diffusion coefficient ([1]; x1 = 0.3104): 5.02e-10 m2/s; binary diffusion coefficient ([1]; x1 = 0.4119): 4.33e-10 m2/s; binary diffusion coefficient ([1]; x1 = 0.5456): 3.2e-10 m2/s; binary diffusion coefficient ([1]; x1 = 0.7298): 2.84e-10 m2/s |
| Cn1cc[n+](C)c1.F[B-](F)(F)F [1,3-dimethyl-1H-imidazolium tetrafluoroborate] | 1.4023 ± 0.0004 | 1.3993 ± 0.0004 | 1.3988 ± 0.0004 | 1.3975 ± 0.0004 | 34 ± 1 | 22 ± 1 | 15 ± 1 | 11 ± 1 | 7.8 ± 1 | – | – |
| Cn1cc[n+](C)c1.F[B-](F)(F)F [1,3-dimethyl-1H-imidazolium tetrafluoroborate] + O | – | – | – | – | – | – | – | – | – | 6.87e-10 | binary diffusion coefficient ([4]; 308.2 K): 7.74e-10 m2/s; binary diffusion coefficient ([4]; 318.2 K): 8.45e-10 m2/s; binary diffusion coefficient ([4]; 328.2 K): 9.62e-10 m2/s; binary diffusion coefficient ([4]; 338.2 K): 1.06e-09 m2/s |
| CCCCn1cc[n+](C)c1.N#CN=C=[N-] [1-butyl-3-methylimidazolium dicyanamide] + O | – | – | – | – | – | – | – | – | – | 2.53e-10 | – |
| CCCCn1cc[n+](C)c1.O=[N+]([O-])[O-] [1-butyl-3-methylimidazolium nitrate] + O | – | – | – | – | – | – | – | – | – | 3.13e-10 | – |
| CCCCn1cc[n+](C)c1.F[B-](F)(F)F [1-butyl-3-methylimidazolium tetrafluoroborate] | 1.4184 ± 0.0004 | 1.4142 ± 0.0004 | 1.4125 ± 0.0004 | 1.4106 ± 0.0004 | 146 ± 4 | 76 ± 2 | 45 ± 1 | 29 ± 1 | 21 ± 1 | – | refractive index ([2]; 308.2 K): 1.4163 ± 0.0004 |
| CCCCn1cc[n+](C)c1.F[B-](F)(F)F [1-butyl-3-methylimidazolium tetrafluoroborate] + O | – | – | – | – | – | – | – | – | – | 1.24e-10 | binary diffusion coefficient ([4]; 308.2 K): 2.56e-10 m2/s; binary diffusion coefficient ([4]; 318.2 K): 3.83e-10 m2/s; binary diffusion coefficient ([4]; 328.2 K): 5.13e-10 m2/s; binary diffusion coefficient ([4]; 338.2 K): 6.45e-10 m2/s |
| CCn1cc[n+](C)c1.N#CN=C=[N-] [1-ethyl-3-methylimidazolium dicyanamide] + O | – | – | – | – | – | – | – | – | – | 7.25e-10 | – |
| CCn1cc[n+](C)c1.[O-][Cl+3]([O-])([O-])[O-] [1-ethyl-3-methylimidazolium perchlorate] + O | – | – | – | – | – | – | – | – | – | 1.93e-10 | – |
| CCn1cc[n+](C)c1.F[B-](F)(F)F [1-ethyl-3-methylimidazolium tetrafluoroborate] | 1.4098 ± 0.0004 | 1.4065 ± 0.0004 | 1.4053 ± 0.0004 | 1.4035 ± 0.0004 | 45 ± 1 | 27 ± 1 | 19 ± 1 | 14 ± 1 | 11 ± 1 | – | refractive index ([2]; 308.2 K): 1.4082 ± 0.0004 |
| CCn1cc[n+](C)c1.F[B-](F)(F)F [1-ethyl-3-methylimidazolium tetrafluoroborate] + O | – | – | – | – | – | – | – | – | – | 3.42e-10 | binary diffusion coefficient ([4]; 308.2 K): 4.65e-10 m2/s; binary diffusion coefficient ([4]; 318.2 K): 5.57e-10 m2/s; binary diffusion coefficient ([4]; 328.2 K): 6.72e-10 m2/s; binary diffusion coefficient ([4]; 338.2 K): 7.89e-10 m2/s |
| O [water] | 1.3325 ± 0.0005 | 1.3299 ± 0.0005 | 1.3282 ± 0.0005 | 1.3275 ± 0.0005 | 0.9 | 0.72 | 0.61 | 0.5 | 0.43 | – | refractive index ([2]; 308.2 K): 1.3313 ± 0.0005 |
